The record followed here is patent US9352015B2, “Antimicrobial peptides” (priority 2009, dated 2016).

The subject of data set [1] is Methicillin Resistant Staphylococcus aureus (MRSA) and Staphylococcus aureus. The format is cell-based. The gist of the method: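 MICs by microtiter broth dilution in triplicate determinations, mostly LB no-salt medium (sometimes MH or BHI), final inoculum 5×10^5 CFU/ml (1×10^5 CFU/ml in the MH variant), 24 h at 37 °C. MIC is the lowest peptide concentration inhibiting growth; tested on 20 clinical MRSA and S. aureus isolates.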

Another data set deals with Acinetobacter baumannii. The format is cell-based. To be noted: for Acinetobacter baumannii MICGM: geometric mean, 11 different isolates, 24 hours at 37° C. A digest of the protocol: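 Microtiter broth dilution in triplicate, mainly LB no-salt medium (MH or BHI in some cases), peptides serially diluted, final inoculum 5×10^5 CFU/ml (1×10^5 CFU/ml in MH variant); 24 h at 37° C. MIC is the lowest peptide concentration inhibiting growth, given in micromolar against clinical isolates.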

The next data set deals with Pseudomonas aeruginosa. The note with it: geometric mean, 6 different isolates, 24 hours at 37° C.
Another data set concerns human erythrocytes. The experiment in a line: Hemolytic activity against human erythrocytes (HC50 / MHC, microtiter dilution). The data set is classed as cell-based. The method, then:
(§1) Hemoglobin release was determined spectrophotometrically at 570 nm. The hemolytic activity was determined as the peptide concentration that caused 50% hemolysis of erythrocytes after 18 h (HC50). […] HC50 was determined by a plot of peptide concentration versus percent lysis.

Assay in data set [2]: as above
The note with it: 1% human erythrocytes, pH 7.4. The data set is classed as cell-based. The method, then:
as §1

A short description of data set [3]: Circular dichroism spectroscopy (helical structure). The format is physicochemical. A general note: Circular dichroism is the unequal absorption of left and right circularly polarised light.

In brackets after ≈: the same amount, converted by molar mass. Where two headings read alike, the source gives them in different places.

Broadly, the HC50 is the concentration that lyses half of the red blood cells.

In the case of `CC(=O)N[C@H](CCCCN)C(=O)N[C@H](CC(C)C)C(=O)N[C@H](CCCCN)C(=O)N[C@H](CO)C(=O)N[C@H](CC(C)C)C(=O)N[C@H](CC(C)C)C(=O)N[C@H](CCCCN)C(=O)N[C@@H](C(=O)N[C@H](CC(C)C)C(=O)N[C@H](CO)C(=O)N[C@H](CCCCN)C(=O)N[C@H](C)C(=O)N[C@H](CCCCN)C(=O)N[C@H](CCCCN)C(=O)N[C@H](CCCCN)C(=O)N[C@H](CCCCN)C(=O)N[C@H](CC(C)C)C(=O)N[C@H](CCCCN)C(=O)N[C@@H](C(=O)N[C@H](CC(C)C)C(=O)N[C@H](CC(C)C)C(=O)N[C@H](CCCCN)C(=O)N[C@H](C)C(=O)N[C@H](CC(C)C)C(=O)N[C@H](CO)C(=O)N[C@H](CCCCN)C(N)=O)[C@H](C)O)[C@H](C)O` [Peptide D16, Ac-KLKSLLKTLSKAKKKKLKTLLKALSK-amide], in data set [1], the “MIC GM (geometric mean)” value stood at 48.3 µM (≈ 144 µg/mL). In the data set with Acinetobacter baumannii, the “Antimicrobial Activity MIC against A. baumannii” value (from here on “Antimicrobial Activity MIC”) was found to be 0.4 µM, the “Fold more active than D1 against A. baumannii” value is reported as ~3 fold, the “MIC GM (geometric mean)” value came out at 0.4 µM (≈ 1.19 µg/mL) and the Acinetobacter baumannii MICGM was determined as 0.4 µM. The compound also showed a Pseudomonas aeruginosa MICGM in the data set on Pseudomonas aeruginosa of 1.5 µM. Also, the “Fold less hemolytic than D1” value with human erythrocytes turned out to be 9.5. The compound also yielded a concentration for 50% haemolysis (HC50) at 18 h in data set [2] (human) of 1340 µM.

`CC[C@@H](C)[C@@H](NC(=O)[C@@H](C)NC(=O)[C@@H](CCCCN)NC(=O)[C@@H](CC(C)C)NC(=O)[C@@H](CC(C)C)NC(=O)[C@H](NC(=O)[C@@H](CCCCN)NC(=O)[C@@H](CC(C)C)NC(=O)[C@@H](CCCCN)NC(=O)[C@@H](CCCCN)NC(=O)[C@@H](CCCCN)NC(=O)[C@@H](CCCCN)NC(=O)[C@@H](C)NC(=O)[C@@H](CCCCN)NC(=O)[C@@H](CO)NC(=O)[C@@H](Cc1ccccc1)NC(=O)[C@H](NC(=O)[C@@H](CCCCN)NC(=O)[C@@H](CC(C)C)NC(=O)[C@@H](Cc1ccccc1)NC(=O)[C@@H](CO)NC(=O)[C@@H](CCCCN)NC(=O)[C@@H](Cc1c[nH]c2ccccc12)NC(=O)[C@@H](CCCCN)NC(C)=O)[C@H](C)O)[C@H](C)O)C(=O)N[C@H](CO)C(=O)N[C@H](CCCCN)C(N)=O` [Peptide D14, Ac-KWKSFLKTFSKAKKKKLKTLLKAISK-amide]: the “MIC GM (geometric mean)” value in data set [1] came out at 40.1 µM (≈ 125 µg/mL). In addition, in the data set with Acinetobacter baumannii, the “Antimicrobial Activity MIC” value stood at 0.8 µM, the “MIC GM (geometric mean)” value turned out to be 0.8 µM (≈ 2.5 µg/mL) and the Acinetobacter baumannii MICGM is 0.8 µM. In addition, the Pseudomonas aeruginosa MICGM with Pseudomonas aeruginosa amounted to 2.5 µM. For the same compound, in the data set with human erythrocytes, the “Hemolytic activity HC50” value is 351.5 µM. Moreover, in data set [2] (human), the concentration for 50% haemolysis (HC50) at 18 h is 352 µM.

As to `CC[C@@H](C)[C@@H](NC(=O)[C@@H](C)NC(=O)[C@@H](CCCCN)NC(=O)[C@@H](CC(C)C)NC(=O)[C@@H](C)NC(=O)[C@H](NC(=O)[C@@H](CCCCN)NC(=O)[C@@H](CC(C)C)NC(=O)[C@H](NC(=O)[C@@H](CCCCN)NC(=O)[C@@H](CCCCN)NC(=O)[C@@H](CCCCN)NC(=O)[C@@H](C)NC(=O)[C@@H](CCCCN)NC(=O)[C@@H](CO)NC(=O)[C@@H](Cc1ccccc1)NC(=O)[C@H](NC(=O)[C@@H](CCCCN)NC(=O)[C@@H](CC(C)C)NC(=O)[C@@H](Cc1ccccc1)NC(=O)[C@@H](CO)NC(=O)[C@@H](CCCCN)NC(=O)[C@@H](Cc1c[nH]c2ccccc12)NC(=O)[C@@H](CCCCN)NC(C)=O)[C@H](C)O)C(C)C)[C@H](C)O)C(=O)N[C@H](CO)C(=O)N[C@H](CCCCN)C(N)=O` [Peptide D11, Ac-KWKSFLKTFSKAKKKVLKTALKAISK-amide], the “MIC GM (geometric mean)” value in data set [1] amounted to 14.0 µM (≈ 42.7 µg/mL). In the data set on Acinetobacter baumannii, the “Antimicrobial Activity MIC” value stood at 0.6 µM, the “MIC GM (geometric mean)” value was 0.6 µM (≈ 1.83 µg/mL) and the Acinetobacter baumannii MICGM was determined as 0.6 µM. Besides, in the data set with Pseudomonas aeruginosa, the Pseudomonas aeruginosa MICGM is 1.6 µM. In addition, the “Hemolytic activity HC50” value in the data set with human erythrocytes turned out to be 254.1 µM. The same compound gave a 50% haemolytic concentration (HC50) at 18 h in data set [2] (human) of 254 µM.

On to “Ac-ELEKGGLEGEKGGKELEK-amide (Ac-ELEKGGLEGEKGGKELEK-NH2) [peptide C]”, for which the “[θ]222 molar ellipticity” value in data set [3] (50% TFE, 5° C.) was −3,950.

As for “PLL: V681 with L-Leu at position 11 (polar face), SEQ ID NO:13 (KWKSFLKTFKLAVKTVLHTALKAISS)”, the “[θ]222 molar ellipticity” value in data set [3] (benign conditions (100 mM KCl, 50 mM aq. PO4, pH 7)) is −10,850.

Compound `CC(=O)N[C@H](CCCCN)C(=O)N[C@H](CC(C)C)C(=O)N[C@H](CCCCN)C(=O)N[C@H](CO)C(=O)N[C@H](CC(C)C)C(=O)N[C@H](CC(C)C)C(=O)N[C@H](CCCCN)C(=O)N[C@@H](C(=O)N[C@H](CC(C)C)C(=O)N[C@H](CO)C(=O)N[C@H](CCCCN)C(=O)N[C@H](CC(C)C)C(=O)N[C@H](CCCCN)C(=O)N[C@H](CCCCN)C(=O)N[C@H](CCCCN)C(=O)N[C@H](CCCCN)C(=O)N[C@H](CC(C)C)C(=O)N[C@H](CCCCN)C(=O)N[C@@H](C(=O)N[C@H](CC(C)C)C(=O)N[C@H](CC(C)C)C(=O)N[C@H](CCCCN)C(=O)N[C@H](C)C(=O)N[C@H](CC(C)C)C(=O)N[C@H](CO)C(=O)N[C@H](CCCCN)C(N)=O)[C@H](C)O)[C@H](C)O` [Peptide D23, Ac-KLKSLLKTLSKLKKKKLKTLLKALSK-amide] displayed an Acinetobacter baumannii MICGM with Acinetobacter baumannii of 0.8 µM. Besides, in the data set with Pseudomonas aeruginosa, the Pseudomonas aeruginosa MICGM was 2 µM. In the data set on human erythrocytes, this compound yielded a Hemolytic activity HC50 of 186 µM.

With `CC(=O)N[C@H](CCCCN)C(=O)N[C@H](CC(C)C)C(=O)N[C@H](CCCCN)C(=O)N[C@H](CO)C(=O)N[C@H](CC(C)C)C(=O)N[C@H](CC(C)C)C(=O)N[C@H](CCCCN)C(=O)N[C@@H](C(=O)N[C@H](CC(C)C)C(=O)N[C@H](CO)C(=O)N[C@H](CCCCN)C(=O)N[C@H](C)C(=O)N[C@H](CCCCN)C(=O)N[C@H](CCCCN)C(=O)N[C@H](CCCCN)C(=O)N[C@H](CC(C)C)C(=O)N[C@H](CC(C)C)C(=O)N[C@H](CCCCN)C(=O)N[C@@H](C(=O)N[C@H](C)C(=O)N[C@H](CC(C)C)C(=O)N[C@H](CCCCN)C(=O)N[C@H](C)C(=O)N[C@H](CC(C)C)C(=O)N[C@H](CO)C(=O)N[C@H](CCCCN)C(N)=O)[C@H](C)O)[C@H](C)O` [Peptide D15, Ac-KLKSLLKTLSKAKKKLLKTALKALSK-amide], in data set [1], the “MIC GM (geometric mean)” value was 8.1 µM (≈ 23.7 µg/mL). In the data set on Acinetobacter baumannii, the “Antimicrobial Activity MIC” value was determined as 0.5 µM, the “MIC GM (geometric mean)” value was found to be 0.5 µM (≈ 1.46 µg/mL) and the Acinetobacter baumannii MICGM is 0.5 µM. Moreover, in the data set on Pseudomonas aeruginosa, the Pseudomonas aeruginosa MICGM was found to be 1 µM. In the data set on human erythrocytes, the “Hemolytic activity HC50” value was determined as 169.6 µM. In addition, the Hemolytic activity HC50 with human erythrocytes (50% hemolysis after 18 hours at 37° C.) stood at 170 µM. The concentration for 50% haemolysis (HC50) at 18 h in data set [2] (human erythrocytes, concentration of peptide that results in 50% hemolysis after 18 hours at 37° C., read-out: Hemolytic activity HC50) came out at 170 µM.

Take `CC(=O)N[C@H](CCCCN)C(=O)N[C@H](CC(C)C)C(=O)N[C@H](CCCCN)C(=O)N[C@H](CO)C(=O)N[C@H](CC(C)C)C(=O)N[C@H](CC(C)C)C(=O)N[C@H](CCCCN)C(=O)N[C@@H](C(=O)N[C@H](CC(C)C)C(=O)N[C@H](CO)C(=O)N[C@H](CCCCN)C(=O)N[C@H](CC(C)C)C(=O)N[C@H](CCCCN)C(=O)N[C@H](CCCCN)C(=O)N[C@H](CCCCN)C(=O)N[C@H](CCCCN)C(=O)N[C@H](CC(C)C)C(=O)N[C@H](CCCCN)C(=O)N[C@@H](C(=O)N[C@H](CC(C)C)C(=O)N[C@H](CC(C)C)C(=O)N[C@H](CCCCN)C(=O)N[C@H](CC(C)C)C(=O)N[C@H](CC(C)C)C(=O)N[C@H](CO)C(=O)N[C@H](CCCCN)C(N)=O)[C@H](C)O)[C@H](C)O` [Peptide D24, Ac-KLKSLLKTLSKLKKKKLKTLLKLLSK-amide]: the Acinetobacter baumannii MICGM in the data set on Acinetobacter baumannii was found to be 1.9 µM. In the data set with Pseudomonas aeruginosa, this compound returned a Pseudomonas aeruginosa MICGM of 3.9 µM. The compound also gave a Hemolytic activity HC50 in the data set on human erythrocytes of 123 µM.
